From patent US20230200394A1, “SELECTIVE HERBICIDES BASED ON SUBSTITUTED ISOXAZOLIN CARBOXAMIDES AND BENOXACOR” (BAYER AKTIENGESELLSCHAFT, priority 2020, published 2023)

Test system: ZEAMA Sileno
Assay: Safener seed treatment; pre-emergence herbicide application, visual scoring of % crop damage in greenhouse
Type: in vivo, maize
Conditions: for HER effect [%] / HER effect + SAF [%]: crop damage, pre-emergence; for HER effect [%]: herbicide alone (no safener); for HER effect + SAF [%]: seed treated with Benoxacor 0.25 g a.i./kg seed; for Reduction [Difference]: herbicide damage without safener minus with Benoxacor 0.25 g a.i./kg seed; for Reduction [%]: reduction of herbicide damage by Benoxacor 0.25 g a.i./kg seed, relative to damage without safener
Method: Seed Treatment; Pre-Emergence For the safener seed treatment, sufficient seeds of the respective crops (spring wheat, TRZAS; spring barley, HORVS; maize, ZEAMA) were weighed into screw top glass bottles approximately twice the volume of the seeds. The specified safeners, formulated as wettable powder (WP) were weighed out so that the specified rates (g a.i./kg seed) would be obtained, dissolved in water (1 ml water per 10 g of seeds), and added to the seeds to produce a slurry. The bottles were capped and then placed in an overhead shaker (set at medium speed for ca. 60 minutes) so that the seeds were evenly coated with the slurry. The bottles were uncapped and the seeds were either placed on paper and dried for an interval of 3-4 hours prior to sowing, or directly sown. Seeds were placed in sandy loam soil in pots of a diameter of 7-8 cm, and covered with soil. Pre-emergence application of the specified herbicides was done subsequently, on two sets of plants: a) seed treatment with safener, as described above b) no safener treatment The herbicides were formulated as WP and was sprayed onto the soil surface as an aqueous suspension at an equivalent water application rate of 300 l/ha. After application, the test plants were kept in the greenhouse under good growth conditions. At intervals up to 4 weeks after application (=28 days after treatment; DAT), % crop damage observed on the treated plants was scored visually in comparison to control plants that had not received any safener or herbicide treatment. Values in the table below are mean values of at least 2 replicates.

[1] = HER dose 40 g a.i./ha, assessment 14 DAT
[2] = HER dose 40 g a.i./ha, assessment 26 DAT
[3] = HER dose 80 g a.i./ha, assessment 14 DAT

`C=CC1(C(=O)NC2C=CC(C(=O)OC)C2)CC(c2cc(F)cc(F)c2)=NO1` (stereo not shown) [Example 1.26] was tested, and the “HER effect [%]” value [1] was 25%, the “HER effect [%]” value [2] was 50% and the “HER effect [%]” value [3] was 70%. The “HER effect [%]” value (HER dose 80 g a.i./ha, assessment 26 DAT) was 70%, the “HER effect + SAF [%]” value (HER dose 40 g a.i./ha, 14 DAT) was 5% and the “HER effect + SAF [%]” value (HER dose 40 g a.i./ha, 26 DAT) was 5%. For the same compound, the “HER effect + SAF [%]” value (HER dose 80 g a.i./ha, 14 DAT) was 35%, the “HER effect + SAF [%]” value (HER dose 80 g a.i./ha, 26 DAT) was 30% and the “Reduction [Difference]” value (HER dose 40 g a.i./ha, 14 DAT) was 20. The “Reduction [Difference]” value (HER dose 40 g a.i./ha, 26 DAT) was 45, the “Reduction [Difference]” value (HER dose 80 g a.i./ha, 14 DAT) was 35 and the “Reduction [Difference]” value (HER dose 80 g a.i./ha, 26 DAT) was 40. The “Reduction [%]” value (HER dose 40 g a.i./ha, 14 DAT) was 80%, the “Reduction [%]” value (HER dose 40 g a.i./ha, 26 DAT) was 90% and the “Reduction [%]” value (HER dose 80 g a.i./ha, 14 DAT) was 50%. For the same compound, the “Reduction [%]” value (HER dose 80 g a.i./ha, 26 DAT) was 57%.
For `CC1(C(=O)NC2C=CC(C(=O)O)C2)CC(c2cc(F)cc(F)c2)=NO1` (stereo not shown) [Example 1.36], the “HER effect [%]” value [1] was 60%, the “HER effect [%]” value [3] was 83% and the “HER effect + SAF [%]” value (HER dose 40 g a.i./ha, 14 DAT) was 40%. The “HER effect + SAF [%]” value (HER dose 80 g a.i./ha, 14 DAT) was 60%, the “Reduction [Difference]” value (HER dose 40 g a.i./ha, 14 DAT) was 20 and the “Reduction [Difference]” value (HER dose 80 g a.i./ha, 14 DAT) was 23. The “Reduction [%]” value (HER dose 40 g a.i./ha, 14 DAT) was 33% and the “Reduction [%]” value (HER dose 80 g a.i./ha, 14 DAT) was 28%.
With `C=CC1(C(=O)NC2COC(C(=O)OC)C2)CC(c2cc(F)cc(F)c2)=NO1` (mixture of isomers) [Example 1.68] the “HER effect [%]” value [2] was 95%, the “HER effect + SAF [%]” value (HER dose 40 g a.i./ha, 26 DAT) was 60% and the “Reduction [Difference]” value (HER dose 40 g a.i./ha, 26 DAT) was 35. The “Reduction [%]” value (HER dose 40 g a.i./ha, 26 DAT) was 37%.
